Data reported in patent US7402579B2, “Quinobenzoxazine analogs and compositions” (Cylene Pharmaceuticals, Inc., priority 2005, dated 2008).
Like-named read-outs stand apart in the source and are kept apart here.

Key:
HeLa cells = assay: MTS cell proliferation/cytotoxicity assay, Hela; type: cell-based; settings: Homo sapiens
Description: (§1) The antiproliferative effects of the present compounds may be tested using a cell proliferation and/or cytotoxicity assay, following protocols described below.
Cell culture. Human cervical epithelial cells (HeLa cells) are obtained from American Type Culture Collection (Manassas, Va.). Cells are grown in Eagle's minimum essential medium (MEM, Hyclone, Utah) supplemented with 2 mM Glutamine, 0.1 mM nonessential amino acid, 1 mM Na Pyruvate, 1.5 g/L NaHCO3, 50 mg/L gentamicin, and 10% fetal bovine serum (Hyclone, USA) in a humidified atmosphere of 5% CO2 at 37° C.
(§2) MTS assays. Antiproliferative effects of anticancer drugs are tested by the CellTiter 96 AQueous assay (Promega, Wis.), which is a colorimetric assay for determining the number of viable cells. (See, e.g., Wang, L., et al., Methods Cell Sci (1996) 18:249-255).
(§3) Generally, cells (2,000 to 5,000 cells/well) are seeded on 96 well flat bottom plates (Corning, N.Y.) in 100 μl of culture medium without any anticancer drug on day 0, and the culture medium is exchanged for that contained anticancer drugs at various concentrations on day 1. After incubation for 3 days under normal growth conditions (on day 4), the monolayers are washed once in PBS, and the medium is switched to 100 μl of PBS in each of the 96 well plate. After mixing MTS and PMS at the ratio of 20:1, 20 μl of MTS/PMS solution is added to each of the 96 well plate and incubated for 4 hours in a humidified atmosphere of 5% CO2 at 37° C. The absorbance was read at 490 nm using FLUOstar Galaxy 96 well plate reader (BMG Labtechnologies, Germany).

HCT-116 cells = assay: MTS cell proliferation/cytotoxicity assay, HCT-116; type: cell-based; settings: Homo sapiens
Description: as §1, §2, §3

[1] = molecular target: c-Myc template DNA (quadruplex); assay: Quadruplex binding assay (STOP assay, Taq polymerase arrest, capillary electrophoresis); type: biochemical; settings: concentration at which 50% of the DNA was arrested
Description: Generally, a 5′-fluorescent-labeled (FAM) primer (P45, 15 nM) was mixed with template DNA (15 nM) in a Tris-HCL buffer (15 mM Tris, pH 7.5) containing 10 mM MgCl2, 0.1 mM EDTA and 0.1 mM mixed deoxynucleotide triphosphates (dNTP's). In one example, the FAM-P45 primer (5′-6FAM-[…] CAATT-3′) (SEQ ID NO. 17) and the c-Myc template DNA (5′-[…] […] […]-3′) (SEQ ID NO. 18) were synthesized and HPLC purified by Applied Biosystems. The mixture was denatured at 95° C. for 5 minutes and, after cooling down to room temperature, was incubated at 37° C. for 15 minutes.
After cooling down to room temperature, 1 mM […] and the test compound (various concentrations) were added and the mixture incubated for 15 minutes at room temperature. The primer extension was performed by adding 10 mM KCl and Taq DNA Polymerase (2.5 U/reaction, Promega) and incubating at 70° C. for 30 minutes. The reaction was stopped by adding 1 μl of the reaction mixture to 10 μl Hi-Di Formamide mixed and 0.25 μl LIZ120 size standard. Hi-Di Formamide and LIZ120 size standard were purchased from Applied Biosystems. The partially extended quadruplex arrest product was between 61 or 62 bases long and the full-length extended product was 99 bases long. The products were separated and analyzed using capillary electrophoresis. Capillary electrophoresis was performed using an ABI PRISM 3100-Avant Genetic Analyzer. The assay was performed using compounds described above, and μM concentrations reported in Table 1 (Tables 1A-1F) are concentrations at which 50% of the DNA was arrested in the assay (i.e., the ratio of shorter partially extended DNA (arrested DNA) to full-length extended DNA is 1:1).
Stop Assays. Stop assays are high throughput, first-pass screens for detecting drugs that bind to and stabilize the target G-quadruplex. Generally, DNA template oligonucleotide is created, which contains the nucleotide sequence of the “target” quadruplex against which drug screening is desired. A fluorescently labeled primer DNA is then annealed to the 3′ end of the template DNA. A DNA polymerase such as Taq polymerase is then introduced to synthesize a complementary strand of DNA by extending from the fluorescently labeled primer. When the progress of the Taq polymerase is unhindered, it synthesizes a full-length copy of the template. […] If, however, the test drug selectively binds to and stabilizes the quadruplex, the progress of polymerase arrests only at the quadruplex, and a characteristic “Stop Product” is synthesized.
These products are visualized by capillary electrophoresis.

| SMILES | IC50 (HeLa cells; Table 1A) | IC50 (HCT-116 cells; Table 1A) | IC50 (HeLa cells; Table 1B) | IC50 (HCT-116 cells; Table 1B) | IC50 ([1]; Table 1B, read-out: STOP IC50) | also measured |
| --- | --- | --- | --- | --- | --- | --- |
| CN1CCCC1CCNC(=O)c1cn2c3c(c(N4CCC(c5cnccn5)C4)c(F)cc3c1=O)Oc1ccc(C(N)=O)cc1-2 (stereo not drawn) | 11 µM | 3.6 µM |  |  |  |  |
| CN1CCCC1CCNC(=O)c1cn2c3c(c(N4CCC(c5cnccn5)C4)c(F)cc3c1=O)Oc1ccc(C#N)cc1-2 (stereo not drawn) | 1.2 µM | 0.4 µM |  |  |  |  |
| N#Cc1ccc2c(c1)-n1cc(C(=O)NCCN3CCCC3)c(=O)c3cc(F)c(N4CCC(c5cnccn5)C4)c(c31)O2 (stereo not drawn) | 0.21 µM | 0.031 µM |  |  |  | IC50 ([1]; Table 1A, read-out: STOP IC50): 5 µM |
| N#Cc1ccc2c(c1)-n1cc(C(=O)NCCN3CCOCC3)c(=O)c3cc(F)c(N4CCC(N)C4)c(c31)O2 (stereo not drawn) | 0.68 µM | 0.4 µM |  |  |  |  |
| CC(C)N1CCN(c2c(F)cc3c(=O)c(C(=O)NCCN4CCCC4)cn4c3c2Oc2ccc(C#N)cc2-4)CC1 | 0.04 µM | 0.03 µM |  |  |  | IC50 ([1]; Table 1A, read-out: STOP IC50): 10 µM |
| O=C(NCCN1CCCC1)c1cn2c3c(cc(SCCc4cnccn4)cc3c1=O)Oc1cc3ccccc3cc1-2 |  |  | 0.28 µM | 2.8 µM | 3.9 µM |  |
| CN1CCCC1CCNC(=O)c1cn2c3c(cc(SCCc4cnccn4)cc3c1=O)Oc1cc3ccccc3cc1-2 (stereo not drawn) |  |  | 1.8 µM | 10 µM | 3.4 µM |  |
| CN1CCCC1CCNC(=O)c1cn2c3c(cc(SCc4ccccc4)cc3c1=O)Oc1cc3ccccc3cc1-2 (stereo not drawn) |  |  | 5.2 µM | 3.9 µM | 14 µM |  |
| Cc1cc(CSc2cc3c4c(c2)c(=O)c(C(=O)NCCC2CCCN2C)cn4-c2cc4ccccc4cc2O3)no1 (stereo not drawn) |  |  | 2.3 µM | 2.9 µM | 5.4 µM |  |
| CN1CCCC1CCNC(=O)c1cn2c3c(cc(SCc4ccccn4)cc3c1=O)Oc1cc3ccccc3cc1-2 (stereo not drawn) |  |  | 2.5 µM | 3.1 µM | 3.8 µM |  |
| CN1CCCC1CCNC(=O)c1cn2c3c(cc(SCCc4cnccn4)cc3c1=O)Oc1ccccc1-2 (stereo not drawn) |  |  | 3 µM | 3.8 µM | 10 µM |  |
| CN1CCCC1CCNC(=O)c1cn2c3c(cc(SCc4ccncc4)cc3c1=O)Oc1cc3ccccc3cc1-2 (stereo not drawn) |  |  | 4.1 µM | 4.2 µM | 2.9 µM |  |
| CC(=O)N1CCN(c2cc3c(=O)c(C(=O)NCCN4CCCC4)cn4c3c(c2F)Oc2cc(Cl)ccc2-4)CC1 |  |  |  |  |  | IC50 ([1]; Table 1C, read-out: STOP IC50): 6 µM |
| CC1CCN(C(=O)c2cn3c4c(c(NCCN5CCOCC5)c(F)cc4c2=O)Oc2ccccc2-3)CC1 [Example 55] |  |  |  |  |  | IC50 ([1]; Table 1E, read-out: STOP Data): > 15 µM |
| CN1CCCC1CCNC(=O)c1cn2c3c(c(N4CCC(c5cnccn5)C4)c(F)cc3c1=O)Oc1ccccc1-2 (stereo not drawn) [Example 81] |  |  |  |  |  | IC50 ([1]; Table 1E, read-out: STOP Data): 5.7 µM |
